{"source": "patent US20250122193A1", "about": "“NOVEL PYRIDOCARBAZOLIUM COMPOUNDS AND MEDICAL USES THEREOF” (MyCural Therapeutics, priority 2021, published 2025)", "key": {"[1]": {"tested_on": "association of MYC with the ODC1 gene promoter", "test": "chromatin immunoprecipitation (ChIP) of MYC at ODC1 promoter", "format": "cell-based", "details": "5 μM", "method": "FIG. 1: MYCMI-7 (Compound Example 1) inhibits the MYC:MAX interaction in cells, bind MYC in vitro, and blocks MYC function. A) Molecular structure of MYCMI-7. B-E) split Gaussia luciferase (GLuc) assay. MYC or MYCN and MAX Gluc constructs were co-transfected into HeLa cells together with a firefly luciferase vector. 24 hours post transfection cells were treated with compounds, and after another 17-24 hours cells were harvested and both GLuc and firefly luciferase activities were measured. The mean of three different experiments is shown. Treatment with: B) 5 μM of MYCMI-7, 64 μM 10058-F4 or 5 μM JQ1, respectively, C) 6.5 μM MYCMI-7 on cells expressing MYC:MAX GLuc vs. GCN4:GCN4 GLuc, D) 5 μM MYCMI-7 and 5 μM ellipticine. E) 5 μM MYCMI-7 for various time points. F) in situ proximity ligation assay (isPLA). […] MYC:GAL4 was used as negative control in the isPLA assay. G) Quantification of isPLA dots. (H) Co-immunoprecipitation (co-IP) of endogenous MYC and MAX proteins from MCF7 cells after treatment with 5 μM MYCMI-7 at various times. IP=immunoprecipitation; W=western blot. I) Chromatin immunoprecipitation (ChIP) of MYC at the ODC1 target gene promoter after treatment of cells with 5 μM MYCMI-7 for 6 hours. J) MYC target gene ODC1 expression after treatment with 5 μM MYCMI-7, quantified by qPCR. K) ChIP of MYC at the ODC promoter in MCF7 cells after 5 μM MYCMI-7 treatment for indicated time points. L) Recombinant MYC bHLHZip protein domain immobilized onto a CM5 chip was subjected to various concentrations of MYCMI-7 and the complex of MYCbHLHZip-MYCMI-7 was measured as response units by SPR. The sensogram was produced by subtracting the blank response.\nFor western blot equal amounts of proteins ([…]) were separated on a 4-12% SDS-PAGE gel. Proteins were transferred to Immobilion-P membrane (Millipore) and detected by immunostaining and chemoluminescence (Immobilion western HRP substrate; Millipore). For immunoprecipitations 500-1000 μg of protein was used. […] Briefly, cells were crosslinked with 1% formaldehyde on ice for 6 minutes. […]"}, "MYC protein [2]": {"target": "MYC protein (Homo sapiens, UniProt P01106)", "sequence (P01106 16-454)": "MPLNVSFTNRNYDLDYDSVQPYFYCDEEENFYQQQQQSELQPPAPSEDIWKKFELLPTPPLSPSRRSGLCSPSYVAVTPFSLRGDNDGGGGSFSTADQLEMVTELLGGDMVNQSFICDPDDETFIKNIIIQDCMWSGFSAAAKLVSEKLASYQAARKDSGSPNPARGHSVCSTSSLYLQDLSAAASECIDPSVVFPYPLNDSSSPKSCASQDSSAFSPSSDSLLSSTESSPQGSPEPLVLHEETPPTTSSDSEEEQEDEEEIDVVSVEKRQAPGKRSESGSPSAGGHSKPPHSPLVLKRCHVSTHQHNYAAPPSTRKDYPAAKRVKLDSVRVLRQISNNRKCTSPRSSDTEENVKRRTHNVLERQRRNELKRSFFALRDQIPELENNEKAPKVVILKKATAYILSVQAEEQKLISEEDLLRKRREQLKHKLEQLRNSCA", "test": "steady state MYC protein level by western blot", "format": "cell-based", "details": "for MYC protein level: 17 hours, 5 μM", "method": "(§1) FIG. 2: MYCMI-7 downregulates MYC and MYCN protein expresión. A) Steady state levels of MYC protein in MCF7 cells after 17 hours exposure to indicated concentrations MYCMI-7 or ellipticine B) MYC mRNA expression in MCF7 cells after treatment with MYCMI-7 for various time points. C) Steady state levels of MYC protein in different HCT116 cell lines (WT, FBW7−/− or p53−/−) after 17 hours exposure to 5 μM MYCMI-7. Endogenous MYC was immunoprecipitated and detected by western blot analysis. D) Cycloheximide (CHX) chase in HCT116 cells. Cells were subjected to 5 μM MYCMI-7 30 min prior cycloheximide addition. Cells were harvested after the indicated time points, MYC was immunoprecipitated using N262 antibody and the MYC levels analyzed using western blot (C33 antibody). E) CHX chase after MYCMI-7 treatment performed as in (D) using Fbxw7-deficient HCT116 cells. F) Stable expression of wt, T58A or S62A MYC in HO15.19 MYC−/− cells. The cells were treated with 5 μM MYCMI-7 overnight, and MYC expression was analyzed by western blot. G) Cartoon showing a linear structural representation of wt MYC and indicated mutants. H-J) Expression of MYC mutants after MYCMI-7 treatment. COS-7 cells were transfected with CMV-driven vectors containing HA-tagged wt MYC or mutants for 24 hrs and treated with 5 μM MYCMI-7 for 17 hrs. The DN (H) and DC (I) MYC mutants encodes the C-terminal and N-terminal halves of the MYC protein, respectively. DBr (J) lacks the DNA-binding basic region of the protein. A-J). Representative western blots out of at least three experiments are shown.\n(§2) For western blot equal amounts of proteins ([…]) were separated on a 4-12% SDS-PAGE gel. Proteins were transferred to Immobilion-P membrane (Millipore) and detected by immunostaining and chemoluminescence (Immobilion western HRP substrate; Millipore). For immunoprecipitations 500-1000 μg of protein was used. […] Briefly, cells were crosslinked with 1% formaldehyde on ice for 6 minutes. Nuclear chromatin was sonicated on ice to fragments from 0.3 kb to 0.5 kb. Nuclear chromatin equivalent to 2.5×10^7 cells was immunoprecipitated with 2 μg antibody."}, "MYC protein [3]": {"tested_on": "MYC protein", "test": "steady state MYC protein level by western blot", "format": "cell-based", "details": "reconstituted HO15.19 MYC knockout Rat1 cells, 5 μM overnight", "method": "as §1, §2"}, "normal REFs": {"tested_on": "normal REFs", "test": "apoptosis assay (Cell Death Detection ELISA), normal REFs", "format": "cell-based, rat", "details": "5 μM, 24 and 48 hours", "method": "FIG. 4: MYCMI-7 induces apoptosis in malignant cells and growth arrest in normal cells. A) Cell cycle distribution analysis by flow cytometry of MYC-regulated P493-6 cells and normal rat embryo fibroblasts (REFs). Left panel, P493-6 synchronized in G0 by 24 hours treatment of […] doxycycline. Doxycycline was removed and the cells were harvested 48 hours after the addition of fresh medium containing DMSO or 5 μM MYCMI-7. Right panel, flow cytometry analysis of normal REFs treated with DMSO or 5 μM MYCMI-7. B) Apoptosis assay using the Cell Death Detection ELISA^plus kit. Left panel, immortalized Rat1 fibroblasts with different MYC status after 24 hours of 5 μM MYCMI-7 treatment, middle panel and right panels, normal REFs and normal peripheral blood lymphocytes, respectively, after 24 and 48 hours of 5 μM MYCMI-7 treatment. C) Measurement of viability and apoptosis by Apo-Tox Glo Triplex assay in A375 melanoma cells after 3 days of treatment with MYCMI-7 with the indicated concentrations. […] E) NHDFs treated with 3 μM MYCMI-7 for 72 hrs. Viability was measured by trypan blue exclusion assay. F) Cell growth measured with Cyt62 assay of primary normal human epidermal melanocytes (NHEM) treated for 72 hours with MYCMI-7, G) Viability measured by trypan blue exclusion assay of NHEM after treatment for 72 hours with MYCMI-7."}, "phosphorylation of ATM": {"tested_on": "phosphorylation of ATM", "test": "phospho-ATM and p53 by western blot, A375", "format": "cell-based", "details": "5 μM, A375 cells, 3 hrs", "method": "A) Measurement of MYC mRNA expression by RTqPCR after treatment with MYCMI-7 and different topoisomerase inhibitors at indicated concentrations. […] D) Western blot analysis of p53 and p21 expression after exposure to 5 μM MYCMI-7, ellipticine or camptothecin (CPT) in HCT116 cells. E) Western blot analysis of phospho-ATM, total ATM and p53 expression after exposure to indicated concentrations of MYCMI-7 and ellipticine in A375 cells after 3 hrs treatment.\nas §2"}}, "data": [{"smiles": "CCN(CC)CC[n+]1ccc2c(C)c3[nH]c4ccccc4c3c(C)c2c1", "note": "[MYCMI-7, 2-(5,11-Dimethyl-6H-25-pyrido[4,3-b]carbazol-2-yl)-N,N-diethylethanamine bromide]", "values": [{"measurement": "time after which reduction of MYC association with ODC1 promoter starts", "setting": "[1]", "result": 2, "unit": "h"}, {"measurement": "time from which MYC association with ODC1 promoter reaches a minimal level", "setting": "[1]", "result": 4, "unit": "h"}, {"measurement": "association of MYC with the ODC1 gene promoter (ChIP)", "setting": "[1]; breast cancer cells", "result": "reduced"}, {"measurement": "phosphorylation of MYC at Thr-58 or Ser-62", "setting": "MYC protein [2]", "result": "did not increase"}, {"measurement": "MYC protein level", "setting": "MYC protein [2]; FBXW7−/− HCT116 cells", "result": "unaffected"}, {"measurement": "steady state level of MYC protein", "setting": "MYC protein [2]; MCF7 cells, 17 hrs, 5 μM MYCMI-7", "result": "decreased drastically"}, {"measurement": "MYC protein level", "setting": "MYC protein [2]; wt and p53 null HCT116 cells", "result": "strongly reduced"}, {"measurement": "levels of wt, T58A and S62A MYC", "setting": "MYC protein [3]", "result": "reduced the levels of both wt and the MYC mutants"}, {"measurement": "apoptosis", "setting": "normal REFs", "result": "did not induce apoptosis"}, {"measurement": "phosphorylation of ATM and p53 expression (DDR signaling)", "setting": "phosphorylation of ATM", "result": "only a slight increase"}]}]}
